According to US20140179523A1, “HERBICIDAL COMPOSITIONS COMPRISING 4-AMINO-3-CHLORO-6-(4-CHLORO-2-FLUORO-3-METHOXYPHENYL) PYRIDINE-2-CARBOXYLIC ACID OR A DERIVATIVE THEREOF AND FLUFENACET” (DOW AGROSCIENCES LLC, priority 2012, published 2014):

System: field violet (Viola arvensis, VIOAR)
Test: Field trials, post-emergence application in winter wheat, % biomass control visually rated
Format: in vivo
Description: The materials were applied early post-emergence. % BIOMASS CONTROL was visually rated.

| SMILES | % BIOMASS CONTROL 39 DAA Obs (flufenacet 240 g ai/ha) [d %] | % BIOMASS CONTROL 181 DAA Obs (flufenacet 240 g ai/ha) [g %] | % BIOMASS CONTROL 225 DAA Obs (flufenacet 240 g ai/ha) [g %] | % BIOMASS CONTROL 39 DAA Obs (Cmpd 1 7.5 g ae/ha) [d %] | % BIOMASS CONTROL 181 DAA Obs (Cmpd 1 7.5 g ae/ha) [f %] | % BIOMASS CONTROL 225 DAA Obs (Cmpd 1 7.5 g ae/ha) [f %] |
| --- | --- | --- | --- | --- | --- | --- |
| CC(C)N(C(=O)COc1nnc(C(F)(F)F)s1)c1ccc(F)cc1 [Flufenacet, N-(4-fluorophenyl)-N-(1-methylethyl)-2-[[5-(trifluoromethyl)-1,3,4-thiadiazol-2-yl]oxy]acetamide] | 10.00 | 15.00 | 10.00 |  |  |  |
| COC(=O)c1nc(-c2ccc(Cl)c(OC)c2F)cc(N)c1Cl [Cmpd 1, methyl 4-amino-3-chloro-6-(4-chloro-2-fluoro-3-methoxyphenyl)-pyridine-2-carboxylate] |  |  |  | 13.33 | 23.33 | 18.33 |
